Test results: patent publication US12310967B2, “Compositions and methods of treatment for neurological disorders comprising motor neuron diseases” (Gliapharm SA, priority 2017, dated 2025)

Assays:
[1] = system: primary astrocytes; test: High throughput screening (HTS) for lactate secretion: acidification of extracellular medium (SNARF5); type: cell-based, mouse; set-up: key to Score / HTS Score (SNARF5) / Score_SNARF: fraction of plate positive-control activity (1 = 100%); conditions: Appendix I; for Score_SNARF: primary screening confirmation (SNARF5)
Method: Primary cultures of cerebrocortical astrocytes were obtained from 1-2-day-old OF1 mouse pups (Charles River Laboratories). Briefly, cortices were isolated and minced in small pieces under a dissecting microscope. The cells were incubated for 30 min at 37° C. in a solution containing 20 U/ml of papain enzyme (Worthington Biochemical), L-cysteine 1 mM (Sigma), and 10 kU/ml DNase I (Worthington Biochemical) for an enzymatic dissociation. Papain activity was stopped by the addition of fetal calf serum (FCS) to the solution, and a single-cell suspension was then obtained by mechanical dissociation, which consisted in cells trituration in a DMEM (D7777, Sigma-Aldrich) medium (supplemented with 44 mm NaHCO3, and 10 ml/L antibiotic/antimycotic solution) containing 10% FCS. The cells were seeded at an average density of 6×10^4 cells/cm^2 in poly-D-lysine-coated 96, 12 or 6-well culture plates, depending on their use, and incubated at 37° C. in a humidified atmosphere containing 5% CO2/95% air. Culture medium was renewed twice per week. Cells were stimulated and harvested between DIV14 and DIV17, when confluence and cell growth were optimal.
Secretion of lactate in a high-throughput screening (HTS) fashion was measured indirectly through the acidification of extracellular medium. To this end, primary astrocytes grown in 96-well plates for 17 days were stimulated with the compounds as listed herein.
After washing the cells twice with stimulation medium (DMEM (D5030, Sigma), 3 mM NaHCO3 and 5 mM Glucose) at 37° C., cells were stimulated with the compounds at a final concentration of 10 uM (1% DMSO final) in 50 ul per well of stimulation medium supplemented with 10 uM of the extracellular pH sensor SNARF-5F %-(AND-6)-CAR (Life Technologies Corporation). Each compound was tested in two different plates for duplicates.
After 90 min stimulation, fluorescence was read at exc. (excitation) 480 nm/emm. (emission) 580 nm and at exc 480 nm/emm. 630 nm. The ratio of fluorescence between 630 nm and 580 emission values, which represents extracellular pH, was calculated.
In each plate, 8 wells were used for negative controls (DMSO) and 8 wells were used for positive controls (CCCP 2 uM in DMSO). Z prime values were calculated for each of the plates tested and values<0 were discarded.
The average and SD of compounds' values tested in duplicates were calculated, and compound was noted as HIT when the difference between compound's average and negative control's average was greater than three times the sum of compound's SD and negative controls' SD. Only scores greater than 40% were considered as lead Hits for the CDC54K library; for the remaining libraries, all hits were considered. Scores are calculated as the % of activity compared to the positive control in each plate (which is 100%).
Primary screening hits were cherry picked on new plates and confirmed for SNARF5 effect, after having discarded those compounds that are fluorescent (exc. 480 nm/emm. 580 nm or 630 nm) before stimulation. Extracellular medium was next analyzed for extracellular lactate quantification for secondary screening.
Identification of lactate-enhancing drugs with high throughput screening (HTS) experiments on astrocytes primary cultures using extracellular pH dye (SNARF5F 5-(and-6)-carboxylic acid) for 90 min. The procedure is described in Material and Methods (2. Cell culture, 2.1. HTS for lactate secretion and 2.2. Extracellular lactate quantification).
The procedure was performed as follows: • Primary screening: acidification of the extracellular medium • Primary screening confirmation: acidification of the extracellular medium, removal of compounds with fluorescent activity at exc. 480 nm/emm. 580 nm or 630 n. • Secondary screening: dosage of extracellular lactate

[2] = system: primary astrocytes; test: Extracellular lactate quantification; type: cell-based, mouse; conditions: Appendix I, secondary screening: extracellular lactate
Method: Secretion of L-lactate was determined in the extracellular medium of 96-well plated astrocytes after 90 min stimulation (at 37° C., in 5% CO2/95% air conditions) with the drug of interest. The stimulation medium was composed of D5030 medium (completed with D-glucose 5 mM and 44 mM sodium bicarbonate) for 90 min in concentrations ranging from 0 to 100 μM.
Briefly, 200 μl of a Glycine (Sigma)-Semicarbazide (Acros) 0.2M pH 10 buffer containing 3 mM NAD (Roche) and LDH 14 U/ml (Roche) was added to each well of a 96-well plate containing 30 μl aliquots complemented with 20 μl fresh complete D5030 medium. Samples were incubated at 37° C. for 1 h. After samples cooled down at room temperature, the fluorescence intensity (340 nm excitation/450 nm emission) that represents the amount of NADH produced was measured, and lactate concentration values were determined from a standard curve of L-lactate.
Statistical analysis consisted in ANOVA followed by Fisher LSD post-hoc test for pair-wise comparisons.
Levels of lactate secreted by astrocytes were measured in the extracellular medium at 90 min after stimulation with hits (molecules) from the CDC54K library.

| Structure (SMILES) | Score_SNARF [1] | Score_LACTATE [2] | Score ([1]; CDC54K primary screening, 10 uM, 90 min, relative to CCCP 2 uM) |
| --- | --- | --- | --- |
| CCn1nccc1-c1csc(S(=O)(=O)Nc2ccccc2OC)c1 [L924-1088] | 0.8835 | 0.9106 | – |
| CC(=O)c1ccc(NS(=O)(=O)c2cc(-c3noc(C4CCCC4)n3)cs2)cc1 [L287-1577] | 1.059 | 1.215 | – |
| Cc1nc(N2CCCC(C(=O)NCc3cccnc3)C2)c2c(C)c(C)oc2n1 (stereo not drawn) [F228-0856] | 0 | 0 | – |
| CCc1ccc(S(=O)(=O)N2CCSC2c2ccc(OC)c(OC)c2)cc1 (stereo not drawn) [4052-4304] | 0.4491 | 0.4335 | – |
| CCc1ccc(C2(O)C[N+](c3ccccc3OC)=C3CCCCN32)cc1 (stereo not drawn) [K404-0672] | 1.014 | 1.356 | – |
| Cc1cccc([N+]2=C3CCCCN3C(O)(c3ccc(Cl)cc3)C2)c1 (stereo not drawn) [K404-0800] | 0.7386 | 0.8385 | – |
| Cc1cccc([N+]2=C3CCCCCN3C(O)(c3ccc(F)cc3)C2)c1 (stereo not drawn) [K404-0910] | 0.5878 | 0.6219 | – |
| COc1cccc(-c2cc3n(n2)CCCN(Cc2ccncc2)C3)c1 [T202-0973] | 0.2834 | 0 | – |
| c1ccc2c(c1)CN(c1ncnc3sccc13)CCN2 [T6768300] | 0.3742 | 0 | – |
| COc1ccccc1[N+]1=C2CCCCCN2C(O)(c2ccc(F)cc2)C1.[Br-] (stereo not drawn) [F0524-0611] | 0.5954 | 1.547 | – |
| Cc1cccc([N+]2=C3CCCCCN3C(O)(c3cccc([N+](=O)[O-])c3)C2)c1 (stereo not drawn) [K404-0915] | – | – | 0 |
| FC(F)(F)c1cccc(CNc2ncnc3sccc23)c1 [T5346988] | 0.9569 | 0.9327 | – |
| Fc1ccc(Nc2nc(N3CCOCC3)c3ccccc3n2)cc1 [T0508-5193] | 0.3052 | 0 | – |
| Cc1nc(-c2cccc(NS(=O)(=O)c3ccc(N4CCCC4=O)cc3)c2)cs1 [T5599698] | 0.8856 | 0.7496 | – |
| Cn1nccc1C(=O)N1CCC(Nc2ncnc3c2CCC3)C1 (stereo not drawn) [T636-2425] | 0.2725 | 0.3027 | – |
| Cc1ccc(CNS(=O)(=O)c2cc(-c3noc(C4CCCC4)n3)cs2)cc1 [L287-1641] | 0.626 | 0.8035 | – |
| Cc1ccc(CNc2ncnc3c2CCC3)o1 [T636-0054] | 0 | 0 | – |
| O=C(C[n+]1cc(-c2ccc(Br)cc2)n2c1CCCCC2)c1ccccc1.[Br-] [T0500-4648] | 1.034 | 1.116 | – |
| CC(=O)N1CCCc2cc(S(=O)(=O)NCc3ccccc3)ccc21 [G855-0210] | 0.3123 | 0 | – |
| O=C(NC1CC1)c1cccc(NS(=O)(=O)c2ccc(N3CCCC3=O)cc2)c1 [T5618591] | 0.5353 | 0.3601 | – |
| O=C(c1ccco1)N1CCCn2nc(-c3ccc(C(F)(F)F)cc3)cc2C1 [T200-0370] | 0.3804 | 0.2896 | – |
| O=S(=O)(NC1CCN(c2ncnc3c2CCC3)C1)c1ccccc1 (stereo not drawn) [T636-1250] | 0.8587 | 0.8982 | – |
| COc1ccc(C2(O)C[N+](c3cccc(C)c3)=C3CCCCN32)cc1 (stereo not drawn) [K404-0796] | 0.6402 | 0 | – |
